{"source": "ChEMBL document CHEMBL3046835", "about": "“Insecticidal activity influence of beta-cypermethrin on the pathogenicity of Beauveria bassiana against Aleurodicus disperses” (Crop Prot, 2013)", "key": {"[1]": {"system": "Aleurodicus dispersus", "assay": "Insecticidal activity against third-instar nymph stage of Aleurodicus dispersus in guava leaves assessed as mortality at 5 mg/l treated for 15 s measured at 27 +/-2 degC after 24 hr (reference value: 2%)", "assay_type": "functional"}, "[2]": {"system": "Aleurodicus dispersus", "assay": "Insecticidal activity against third-instar nymph stage of Aleurodicus dispersus in guava leaves assessed as mortality at 5 mg/l treated for 15 s measured at 27 +/-2 degC after 48 hr (reference value: 3%)", "assay_type": "functional"}, "[3]": {"system": "Aleurodicus dispersus", "assay": "Insecticidal activity against third-instar nymph stage of Aleurodicus dispersus in guava plant leaves assessed as mortality at 2 mg/l measured after 3 days under laboratory conditions (reference value: 2%)", "assay_type": "functional", "conditions": "72 h"}, "[4]": {"system": "Aleurodicus dispersus", "assay": "Insecticidal activity against third-instar nymph stage of Aleurodicus dispersus in guava plant leaves assessed as mortality at 4 mg/l measured after 3 days under laboratory conditions (reference value: 2%)", "assay_type": "functional", "conditions": "72 h"}, "[5]": {"system": "Aleurodicus dispersus", "assay": "Insecticidal activity against third-instar nymph stage of Aleurodicus dispersus in guava plant leaves assessed as mortality at 2 mg/l measured after 9 days under laboratory conditions (reference value: 3%)", "assay_type": "functional", "conditions": "216 h"}, "[6]": {"system": "Aleurodicus dispersus", "assay": "Insecticidal activity against third-instar nymph stage of Aleurodicus dispersus in guava plant leaves assessed as mortality at 4 mg/L applied via hand sprayer measured after 9 days under field conditions (reference value: 4%)", "assay_type": "functional", "conditions": "216 h"}, "[7]": {"system": "Aleurodicus dispersus", "assay": "Insecticidal activity against third-instar nymph stage of Aleurodicus dispersus in guava plant leaves assessed as mortality at 2 mg/L applied via hand sprayer measured after 3 days under field conditions (reference value: 3%)", "assay_type": "functional", "conditions": "72 h"}, "[8]": {"system": "Aleurodicus dispersus", "assay": "Insecticidal activity against third-instar nymph stage of Aleurodicus dispersus in guava leaves assessed as mortality treated for 15 s measured at 27 +/-2 degC after 48 hr", "assay_type": "functional"}, "[9]": {"system": "Aleurodicus dispersus", "assay": "Insecticidal activity against third-instar nymph stage of Aleurodicus dispersus in guava plant leaves assessed as mortality at 4 mg/L applied via hand sprayer measured after 6 days under field conditions (reference value: 3.5%)", "assay_type": "functional", "conditions": "144 h"}, "[10]": {"system": "Beauveria bassiana", "assay": "Effect on Beauveria bassiana Bb-N1 conidial germination at 4 mg/L measured at 27 +/-2 degC after 24 hr (reference value: 94.85 +/-2.13%)", "assay_type": "ADME, organism-based", "conditions": "in vivo"}, "[11]": {"system": "Aleurodicus dispersus", "assay": "Insecticidal activity against third-instar nymph stage of Aleurodicus dispersus in guava plant leaves assessed as mortality at 8 mg/L applied via hand sprayer measured after 6 days in presence of 10^8 Beauveria bassiana conidial suspension under field conditions (reference value: 26.9 +/-3.04%)", "assay_type": "functional", "conditions": "144 h"}, "[12]": {"system": "Aleurodicus dispersus", "assay": "Insecticidal activity against third-instar nymph stage of Aleurodicus dispersus in guava plant leaves assessed as mortality at 4 mg/l measured after 9 days in presence of 10^8 Beauveria bassiana conidial suspension under laboratory conditions (reference value: 45.7 +/-3.18%)", "assay_type": "functional", "conditions": "216 h"}, "[13]": {"system": "Aleurodicus dispersus", "assay": "Insecticidal activity against third-instar nymph stage of Aleurodicus dispersus in guava plant leaves assessed as mortality at 4 mg/L applied via hand sprayer measured after 3 days in presence of 10^8 Beauveria bassiana conidial suspension under field conditions (reference value: 22.2 +/-3.15%)", "assay_type": "functional", "conditions": "72 h"}, "[14]": {"system": "Aleurodicus dispersus", "assay": "Insecticidal activity against third-instar nymph stage of Aleurodicus dispersus in guava leaves assessed as mortality at 10 mg/l treated for 15 s measured at 27 +/-2 degC after 24 hr (reference value: 2%)", "assay_type": "functional"}, "[15]": {"system": "Aleurodicus dispersus", "assay": "Insecticidal activity against third-instar nymph stage of Aleurodicus dispersus in guava plant leaves assessed as mortality at 8 mg/l measured after 9 days under laboratory conditions (reference value: 3%)", "assay_type": "functional", "conditions": "216 h"}, "[16]": {"system": "Aleurodicus dispersus", "assay": "Insecticidal activity against third-instar nymph stage of Aleurodicus dispersus in guava plant leaves assessed as mortality at 8 mg/L applied via hand sprayer measured after 3 days under field conditions (reference value: 3%)", "assay_type": "functional", "conditions": "72 h"}, "[17]": {"system": "Aleurodicus dispersus", "assay": "Insecticidal activity against third-instar nymph stage of Aleurodicus dispersus in guava plant leaves assessed as mortality at 2 mg/L applied via hand sprayer measured after 9 days under field conditions (reference value: 4%)", "assay_type": "functional", "conditions": "216 h"}, "[18]": {"system": "Aleurodicus dispersus", "assay": "Insecticidal activity against third-instar nymph stage of Aleurodicus dispersus in guava plant leaves assessed as mortality at 2 mg/L applied via hand sprayer measured after 9 days in presence of 10^8 Beauveria bassiana conidial suspension under field conditions (reference value: 42.3 +/-3.58%)", "assay_type": "functional", "conditions": "216 h"}, "[19]": {"system": "Aleurodicus dispersus", "assay": "Insecticidal activity against third-instar nymph stage of Aleurodicus dispersus in guava plant leaves assessed as mortality at 8 mg/l measured after 9 days in presence of 10^8 Beauveria bassiana conidial suspension under laboratory conditions (reference value: 45.7 +/-3.18%)", "assay_type": "functional", "conditions": "216 h"}, "[20]": {"system": "Beauveria bassiana", "assay": "Effect on Beauveria bassiana Bb-N1 conidial germination at 8 mg/L measured at 27 +/-2 degC after 24 hr (reference value: 94.85 +/-2.13%)", "assay_type": "ADME, organism-based", "conditions": "in vivo"}, "[21]": {"system": "Aleurodicus dispersus", "assay": "Insecticidal activity against third-instar nymph stage of Aleurodicus dispersus in guava plant leaves assessed as mortality at 4 mg/l measured after 9 days under laboratory conditions (reference value: 3%)", "assay_type": "functional", "conditions": "216 h"}, "[22]": {"system": "Aleurodicus dispersus", "assay": "Insecticidal activity against third-instar nymph stage of Aleurodicus dispersus in guava plant leaves assessed as mortality at 2 mg/l measured after 3 days in presence of 10^8 Beauveria bassiana conidial suspension under laboratory conditions (reference value: 24.3 +/-1.03%)", "assay_type": "functional", "conditions": "72 h"}, "[23]": {"system": "Aleurodicus dispersus", "assay": "Insecticidal activity against third-instar nymph stage of Aleurodicus dispersus in guava plant leaves assessed as mortality at 8 mg/L applied via hand sprayer measured after 3 days in presence of 10^8 Beauveria bassiana conidial suspension under field conditions (reference value: 22.2 +/-3.15%)", "assay_type": "functional", "conditions": "72 h"}, "[24]": {"system": "Aleurodicus dispersus", "assay": "Insecticidal activity against third-instar nymph stage of Aleurodicus dispersus in guava plant leaves assessed as mortality at 2 mg/l measured after 6 days in presence of 10^8 Beauveria bassiana conidial suspension under laboratory conditions (reference value: 32.8 +/-2.39%)", "assay_type": "functional", "conditions": "144 h"}, "[25]": {"system": "Aleurodicus dispersus", "assay": "Insecticidal activity against third-instar nymph stage of Aleurodicus dispersus in guava plant leaves assessed as mortality at 8 mg/l measured after 6 days under laboratory conditions (reference value: 3%)", "assay_type": "functional", "conditions": "144 h"}, "[26]": {"system": "Aleurodicus dispersus", "assay": "Insecticidal activity against third-instar nymph stage of Aleurodicus dispersus in guava plant leaves assessed as mortality at 8 mg/l measured after 3 days under laboratory conditions (reference value: 2%)", "assay_type": "functional", "conditions": "72 h"}, "[27]": {"system": "Aleurodicus dispersus", "assay": "Insecticidal activity against third-instar nymph stage of Aleurodicus dispersus in guava plant leaves assessed as mortality at 4 mg/l measured after 6 days in presence of 10^8 Beauveria bassiana conidial suspension under laboratory conditions (reference value: 32.8 +/-2.39%)", "assay_type": "functional", "conditions": "144 h"}, "[28]": {"system": "Beauveria bassiana", "assay": "Inhibition of Beauveria bassiana Bb-N1 mycelial growth at 10 mg/L measured at 27 +/-2 degC after 10 days (reference value: 2.4 +/-0.19%)", "assay_type": "organism-based", "parameters": "scale not given: the % may be the effect or the level left", "conditions": "in vivo, 240 h"}}}
{"smiles": "CC1(C)[C@H](C=C(Cl)Cl)[C@H]1C(=O)O[C@@H](C#N)c1cccc(Oc2ccccc2)c1", "note": "[BETA-CYPERMETHRIN]", "values": [{"measurement": "mortality at 5 µg/mL", "setting": "[1]", "result": 16.2, "unit": "%"}, {"measurement": "mortality at 5 µg/mL", "setting": "[2]", "result": 32.3, "unit": "%"}, {"measurement": "mortality at 2 µg/mL", "setting": "[3]", "result": 28.7, "unit": "%"}, {"measurement": "mortality at 4 µg/mL", "setting": "[4]", "result": 34.1, "unit": "%"}, {"measurement": "mortality at 2 µg/mL", "setting": "[5]", "result": 28.7, "unit": "%"}, {"measurement": "mortality at 4 µg/mL", "setting": "[6]", "result": 26.7, "unit": "%"}, {"measurement": "mortality at 2 µg/mL", "setting": "[7]", "result": 20.9, "unit": "%"}, {"measurement": "LC95", "setting": "[8]", "result": 1768.57, "unit": "µg/mL"}, {"measurement": "LC50", "setting": "[8]; Aleurodicus dispersus, Nymph stage, 48 h", "result": 18.4, "unit": "µg/mL"}, {"measurement": "mortality at 4 µg/mL", "setting": "[9]", "result": 26.7, "unit": "%"}, {"measurement": "germination rate", "setting": "[10]", "result": 93.15, "unit": "%"}, {"measurement": "mortality at 8 µg/mL", "setting": "[11]", "result": 62.2, "unit": "%"}, {"measurement": "mortality at 4 µg/mL", "setting": "[12]", "result": 77.6, "unit": "%"}, {"measurement": "mortality at 4 µg/mL", "setting": "[13]", "result": 37.6, "unit": "%"}, {"measurement": "mortality at 10 µg/mL", "setting": "[14]", "result": 23.1, "unit": "%"}, {"measurement": "mortality at 8 µg/mL", "setting": "[15]", "result": 39.3, "unit": "%"}, {"measurement": "mortality at 8 µg/mL", "setting": "[16]", "result": 29.4, "unit": "%"}, {"measurement": "mortality at 2 µg/mL", "setting": "[17]", "result": 20.9, "unit": "%"}, {"measurement": "mortality at 2 µg/mL", "setting": "[18]", "result": 54.2, "unit": "%"}, {"measurement": "mortality at 8 µg/mL", "setting": "[19]", "result": 80.6, "unit": "%"}, {"measurement": "germination rate", "setting": "[20]", "result": 92.31, "unit": "%"}, {"measurement": "mortality at 4 µg/mL", "setting": "[21]", "result": 34.1, "unit": "%"}, {"measurement": "mortality at 2 µg/mL", "setting": "[22]", "result": 67.7, "unit": "%"}, {"measurement": "mortality at 8 µg/mL", "setting": "[23]", "result": 42.3, "unit": "%"}, {"measurement": "mortality at 2 µg/mL", "setting": "[24]", "result": 75.3, "unit": "%"}, {"measurement": "mortality at 8 µg/mL", "setting": "[25]", "result": 39.3, "unit": "%"}, {"measurement": "mortality at 8 µg/mL", "setting": "[26]", "result": 39.3, "unit": "%"}, {"measurement": "mortality at 4 µg/mL", "setting": "[27]", "result": 77.6, "unit": "%"}, {"measurement": "Activity", "setting": "[28]", "result": 8.2, "unit": "%"}]}
